# In patent US5725870A, “Methods, composites and articles for contraception” (priority 1996, dated 1998):
# Several values for one entry are separate records, joined by “and”; a condition that tells them apart may be missing. Equal values may be shown once. Read-outs that look alike come from different tables or passages of the source.
# Key:
# HIV = assay: Activity against HIV, test not described; assay type: cell-based
# Description: (§1) and may be prepared by the H2 O2 oxidation of cysteamine (Mills, Jr. et al, J. Am. Chem. Soc., vol. 62, 1173 (1940); and Barnett, J. Chem. Soc., 1944, 5).
# [1] = Cytotoxicity in HIV experiments, test not described; assay type: cell-based
# Description: as §1
# motile spermatozoa = assay: Assessment of spermicidal activity (sperm motility, Sander and Cramer); assay type: cell-based
# Procedure: The method is based on that originally described by Sander and Cramer (F. V. Sander and S. D. Cramer. Human Fertil., vol. 6, pp. 134 (1941)). Apparent spermicidal activity of the test agents are compared to that of a control preparation of nonoxynol-9 (N9).
# For the screening of spermicidal activity of a test agent, a solution of 50 mg/ml is prepared in 0.9% NaCl. This solution is adjusted to pH 7.0 with either HCl or NaOH and is further diluted in 0.9% NaCl to concentrations of 25 mg/ml, 10 mg/ml, 5 mg/ml, and 2.5 mg/ml. N9 is prepared as a solution of 100 μg/ml in 0.9% NaCl.
# The agents are tested by mixing 40 μl of freshly ejaculated semen with 200 μl of test agent at each concentration. Just prior to and 30 seconds after mixing, the percentage of motile spermatozoa is determined by microscopic observation (400×). If 90-100% inhibition of motility is obtained at the lowest concentration tested, the experiment is repeated with a different range of concentrations, the highest concentration being 2.5 mg/ml. A dose-response curve is constructed.
# epithelial fibroblasts = conditions: cited from earlier work
# HTLVIIIB = conditions: 100 μM, added twice-daily, CEM-T4 lymphocytes; cited from earlier work
# [2] = target: T1, sheep testicular hyaluronidase (Ovis aries, UniProt A0ACI6R774); assay: Hyaluronidase inhibition assay; assay type: biochemical; conditions: for Absorbance at 545 nm, Reaction: blank 0.0463
# T1 construct: soluble form of GPI-anchored sperm protein
# T1 sequence (A0ACI6R774 34-551): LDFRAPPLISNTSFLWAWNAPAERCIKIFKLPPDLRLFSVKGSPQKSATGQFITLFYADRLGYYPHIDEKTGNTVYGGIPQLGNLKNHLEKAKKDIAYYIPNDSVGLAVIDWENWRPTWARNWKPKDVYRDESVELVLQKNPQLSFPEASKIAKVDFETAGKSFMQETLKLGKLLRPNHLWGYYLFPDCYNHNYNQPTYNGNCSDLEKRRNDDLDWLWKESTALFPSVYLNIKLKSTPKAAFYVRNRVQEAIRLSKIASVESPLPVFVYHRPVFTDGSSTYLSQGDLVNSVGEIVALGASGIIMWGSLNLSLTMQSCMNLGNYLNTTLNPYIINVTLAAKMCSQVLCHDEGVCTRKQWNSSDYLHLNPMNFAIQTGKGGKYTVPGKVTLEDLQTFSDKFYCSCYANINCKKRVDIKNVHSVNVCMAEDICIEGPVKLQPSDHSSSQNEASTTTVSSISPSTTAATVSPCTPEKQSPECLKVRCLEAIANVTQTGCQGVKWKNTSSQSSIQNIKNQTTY
# Procedure: Hyaluronidase activity is quantified by measuring the extent of hyaluronic acid hydrolysis. This is measured by determining the concentration of N-acetylglucosamine-reactive material, resulting from enzyme action.
# Reaction mixtures contain the following, in a total volume of 0.25 ml: 0.1M sodium acetate, containing 0.15M NaCl, pH 5.5 (Acetate buffer); 7.2 Units sheep testicular hyaluronidase (Sigma, Type III; cat. no. H-2251), from a stock solution dissolved in the Acetate buffer; 0.3 mg/ml hyaluronic acid (Sigma, from bovine vitreous humor, cat-no. H-7630).
# The test compound is screened at a concentration of 1 mg/ml, unless aqueous solubility is limited. The enzyme is preincubated with the test agent for 10 minutes prior to starting the reaction by adding hyaluronic acid. Enzyme reactions are determined by the method of Aronson and Davidson (J. Biol. Chem., vol. 242, pp. 437-440 (1967)). Incubations are carried out for 30 minutes at ambient temperature. Reaction product is determined colorimetrically after reaction with p-dimethylaminobenzaldehyde (Reissig et al., J. Biol. Chem., vol. 217, pp. 959-966 (1955)). The absorbance of the resultant adduct is immediately determined at 545 nm.
# Differences are determined between absorbencies for reactions run in the presence and absence of hyaluronidase (blank, in which hyaluronidase is added after terminating reaction). This is compared to a standard curve of known amounts of N-acetylglucosamine that were treated identically to enzyme reaction mixtures, and converted to μmole equivalents of N-acetylglucosamine. The data are reported as % inhibition, compared to control. A dose-response curve is generated at several concentrations of test compound if significant inhibition is obtained at the screening concentration.
# (§2) IC50 values (those concentrations of inhibitor that produce 50% inhibition under the conditions of the assay) are determined by analyzing enzyme activity as a function of inhibitor concentration, with curve-fitting software (TableCurve 2D, version 3.02; Jandel Scientific).
# CEM-T4 lymphocytes = conditions: 100 μM, added twice-daily; cited from earlier work
# Human acrosin = target: T2, Human acrosin (Homo sapiens, UniProt P10323); assay: Acrosin inhibition assay; assay type: biochemical; conditions: for Acrosin Activity: control 5.4 ± 0.14; for Acrosin Inhibitor (active yes/no): screened at 1 mg/ml
# T2 construct: human acrosin is isolated from washed spermatozoa from frozen semen; from tissue; host or cells: washed human spermatozoa from frozen semen; acid extract, ultrafiltration, Sephadex G-150 pool
# Procedure: Human acrosin activity is measured by following the progression of hydrolysis of N-α-benzoyl-L-arginine ethyl ester (BAEE) spectrophotometrically at 253 nm. Enzyme isolation, partial purification and measurement are carried out by methods described in detail by Anderson et al. (Biochem. J., vol. 199, pp. 307-316 (1981)). Briefly, human acrosin is isolated from washed spermatozoa from frozen semen by extraction with 66 mM acetic acid, pH 2.8. The extract is concentrated by ultrafiltration (Amicon PM 10) and applied to a column that contains Sephadex G-150 (superfine); elution is carried out with 55 mM acetic acid that contains 0.1M NaCl. The eluted volume that contains acrosin activity is pooled and used as the source of enzyme.
# Enzyme reaction mixtures contain the following: 50 mM sodium phosphate, pH 7.5 (Anderson et al, Arch. Biochem. Biophys., vol. 241, pp. 509-520 (1985)); Enzyme-containing protein (3-5 mIU, where 1 mIU is the amount of enzyme required to hydrolyze 1 nmole BAEE per min); 0.05 mM BAEE; with or without inhibitor, in a total volume of 1.0 ml.
# The test compound is screened at a concentration of 1 mg/ml, unless solubility is limited. The enzyme is preincubated with the test agent for 5 minutes prior to starting the reaction by adding BAEE. Reaction blanks, in which either substrate or enzyme has been eliminated, are run in parallel to the reactions.
# The rate of change in absorbance at 253 nm is determined. The change in absorbance that corresponds to 1 μmole of BAEE (in a total volume of 1.0 ml) hydrolyzed is taken as 1.15.
# The enzyme activity in the presence of each agent is compared with that for the control reaction (no test agent added). The data are reported as % inhibition. […] A dose-response curve is generated at several concentrations of test compound if significant inhibition is obtained at the screening concentration.
# Reversibility of acrosin inhibition is determined by the method of Ackermann and Potter (Proc. Soc. Exp. Biol. Med., vol. 72, pp. 1-9 (1949)), in which the level of inhibited enzyme activity is determined in the presence of different amounts of enzyme.
# as §2
# Lactobacillus gasseri = assay: Assay of vaginal lactobacillus growth; assay type: cell-based
# Procedure: Cysteamine was screened with regard to its potential cytotoxicity toward normal vaginal flora. Growth of vaginal lactobacillus was used as a measure of this effect.
# Lactobacillus gasseri, obtained from the American Type Culture Collection (Rockville, Md.) is cultured under anaerobic conditions at 37° in the presence of test agent or no additions (control). Beginning at 120 minutes after the start of incubation and at 20 minute intervals, for a total length of 240 minutes, samples are removed from the incubation flasks, and the absorbance of each suspension at 550 nm is determined, as an estimate of cell density. Data are fit to the equation, Ln (Absorbance)=a+b (Time), where a is the absorbance at 0 time, b is the slope of the curve, and time is measured in minutes. The doubling time (TD) is calculated from the equation TD =(Ln 2)/b. Values are given as the doubling time of bacterial growth, together with the 90% confidence limits. Inhibition of bacterial growth by a test agent can be directly calculated from the reciprocal values of the doubling time (i.e., 75% inhibition of the reciprocal of the calculated doubling time is equal to 75% inhibition of bacterial growth).
# Dose-response curves are produced by determining the doubling time of the culture in the presence of each of several concentrations of test agent, the exact range of which is determined by the results of the screening test that is described above. The concentration of test agent that inhibits the growth of lactobacillus by 50% (IC50) is determined from the calculated doubling time at each concentration of test agent, with curve-fitting software (TableCurve 2D, version 3.02, Jandel Scientific).
# [3] = tested on: cystine crystals found in the corneas; conditions: topical aqueous 0.1% and 0.5%; cited from earlier work
# [4] = 1 mg/ml test agent, 10 min preincubation
# T2 sequence (P10323 43-343 limits assumed): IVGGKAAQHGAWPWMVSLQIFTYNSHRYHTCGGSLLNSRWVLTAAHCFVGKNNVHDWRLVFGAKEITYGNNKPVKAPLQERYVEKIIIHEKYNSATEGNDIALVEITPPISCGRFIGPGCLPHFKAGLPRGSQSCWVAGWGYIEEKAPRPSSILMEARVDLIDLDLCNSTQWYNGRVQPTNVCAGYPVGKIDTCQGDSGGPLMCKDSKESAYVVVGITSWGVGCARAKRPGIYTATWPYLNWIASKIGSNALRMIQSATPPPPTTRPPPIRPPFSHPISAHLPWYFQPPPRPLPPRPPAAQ
# T2 sequence (P10323 20-42 partner limits assumed): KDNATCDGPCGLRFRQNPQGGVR
compound,measurement,setting,value
NCCSSCCN [Cystamine],Activity against the HIV pathogen,HIV,substantial activity
same,Cytotoxicity,[1]; 100 μM,little cytotoxicity
"NCCS [cysteamine, Cysteamine]","Spermicide (effect on sperm motility, in words)",motile spermatozoa,reduce sperm motility
same,"Spermicide (effect on sperm motility, in words)",motile spermatozoa; listed as Cysteamine,Yes
same,Cloning efficiency,epithelial fibroblasts; 10 μM,severe loss in cloning efficiency
same,Cloning efficiency,epithelial fibroblasts; One hundred μM,zero
same,Doubling time,epithelial fibroblasts; One hundred μM,two-fold increase
same,Effect on growth rate,epithelial fibroblasts; concentrations up to 10 μM,no effect on growth rate
same,Antiviral effect against HIV,HIV; other cell lines and other HIV strains,substantiate the antiviral effect
same,"Survival of treated cells, protection against HTLVIIIB",HTLVIIIB,133 % of control
same,IC20,[2],87 µg/mL
same,IC80,[2],219 µg/mL
same,% Inhibition at 1 mg/ml (hyaluronidase),[2]; [4],completely inhibit
same,inhibition at 1000 µg/mL,[2]; [4],100%
same,"Absorbance at 545 nm, Reaction",[2]; cysteamine 1.6 μg/ml,0.1892 and 0.1967
same,"Absorbance at 545 nm, Reaction",[2]; cysteamine 8.0 μg/ml,0.1955 and 0.1853
same,"Absorbance at 545 nm, Reaction",[2]; cysteamine 40.0 μg/ml,0.1775 and 0.1855
same,"Absorbance at 545 nm, Reaction",[2]; cysteamine 200 μg/ml,0.0585 and 0.0656
same,"Absorbance at 545 nm, Reaction","[2]; cysteamine 1,000 μg/ml",0.0068 and 0.0069
same,Hyaluronidase Inhibitor (yes/no),[2]; summary table,Yes
same,Toxicity (cell survival),CEM-T4 lymphocytes,120.8 % of control
same,Acrosin Activity,Human acrosin; cysteamine 0.08 mg/ml,5.2 ± 0.74 μmoles BAEE hydrolyzed/min/mg
same,Acrosin Activity,Human acrosin; cysteamine 0.10 mg/ml,3.8 ± 0.32 μmoles BAEE hydrolyzed/min/mg
same,Acrosin Activity,Human acrosin; cysteamine 0.25 mg/ml,3.4 ± 0.10 μmoles BAEE hydrolyzed/min/mg
same,Acrosin Activity,Human acrosin; cysteamine 0.50 mg/ml,2.2 μmoles BAEE hydrolyzed/min/mg
same,Acrosin Activity,Human acrosin; cysteamine 0.8 mg/ml,0.9 ± 0.28 μmoles BAEE hydrolyzed/min/mg
same,Acrosin Activity,Human acrosin; cysteamine 1.0 mg/ml,0.6 μmoles BAEE hydrolyzed/min/mg
same,3 Log reduction (99.9% inhibition) of acrosin,"Human acrosin; from fitted curve, above highest tested concentration",3.3 mg/ml
same,IC99.9,"Human acrosin; from fitted curve, above highest tested concentration, read-out: 3 Log reduction (99.9% inhibition) of acrosin",3270 µg/mL
same,Reversibility of acrosin inhibition,"Human acrosin; method of Ackermann and Potter, different amounts of enzyme",consistent with a reversible mechanism of inhibition
same,Acrosin Inhibitor (active yes/no),Human acrosin,active
same,Acrosin Inhibitor (active yes/no),Human acrosin; listed as Cysteamine,Yes
same,IC50,Human acrosin; summary table,4.8 mM
same,% Inhibition at 5 mg/ml (growth of vaginal lactobacillus),Lactobacillus gasseri,no effect
same,% Inhibition at 5 mg/ml (growth of vaginal lactobacillus),Lactobacillus gasseri; listed as Cysteamine,No inhibition
same,inhibition at 5000 µg/mL,"Lactobacillus gasseri; Lactobacillus gasseri, read-out: % Inhibition at 5 mg/ml (growth of vaginal lactobacillus)",0%
same,Cellular toxicity,[1],lack of cellular toxicity
same,Reduction of corneal cystine crystals,[3],effective in reducing the cystine crystals
same,Tolerability in chronic topical use,[3],well-tolerated
"nonylphenoxypolyoxyethene glycol [nonoxynol-9, reference compound]",% Inhibition at 1 mg/ml (hyaluronidase),[2]; [4],4%
same,% Inhibition (growth of vaginal lactobacillus),Lactobacillus gasseri; Tested at 0.5 mg/ml,60%
